Assay results: US9328122B2, “7-substituted Hanfangichin B derivative, and preparation method and use thereof” (HANGZHOU BENSHENG PHARMACEUTICAL CO., LTD., priority 2012, dated 2016)
In brackets after ≈: the same amount, converted by molar mass.

Experiments:
[1] = tested on: Hep G2 (human liver cancer) cells; experiment: MTT cell growth inhibition, solid tumor cells; type: cell-based; conditions: Homo sapiens, HepG2, Hep G2, 72 h, MTT; for IC50: read-out: IC50; for IC90: read-out: IC90
Excerpt: (§1) Hep-2 (laryngeal carcinoma), A549 (human lung cancer), CaES-17 (esophageal cancer cell), PC-3 (prostate cancer), CNE (nasopharyngeal carcinoma cell) and SK-OV-3 (ovarian cancer cell), all of which were purchased from China Center For Type Culture Collection; RKO (human colon adenocarcinoma cell), MGC-803 (human gastric cancer cell), MG-63 (osteosarcoma), and U87-MG (malignant glioma cell), all of which were purchased from Fuxiang Bio-tech Co. Ltd., Shanghai, China; PANC-1 (pancreatic cancer), Becap37 (human breast cancer cell), Hela (human cervical cancer cell) and Hep G2 (human liver cancer cell), all of which were donated by Cancer Research Institute of Zhejiang University, China.
(§2) 6000 well-growing human solid tumor cells were obtained and inoculated into wells of a 96-well cell culture plate. The culture medium was DMEM High Glucose cell culture medium containing 10% fetal bovine serum. The plate was placed in a carbon dioxide cell incubator (5% CO2) at 37° C. and incubated for 24 hours. After added with 7-substituted fangchinoline derivatives of different concentration and mixing uniformly, the plate was placed in a carbon dioxide cell incubator (5% CO2) at 37° C. and incubated for 72 hours. Then the viable cell concentration was determined by the MTT method.

[2] = tested on: Hep-2 (laryngeal carcinoma) cells; experiment: MTT cell growth inhibition, solid tumor cells; type: cell-based; conditions: Homo sapiens, Hep-2, 72 h, MTT; for IC50: read-out: IC50; for IC90: read-out: IC90
Excerpt: as §1, §2

[3] = tested on: U87-MG (malignant glioma) cells; experiment: MTT cell growth inhibition, solid tumor cells; type: cell-based; conditions: Homo sapiens, U-87 MG, U87-MG, 72 h, MTT; for IC50: read-out: IC50; for IC90: read-out: IC90
Excerpt: as §1, §2

[4] = tested on: MG-63 (osteosarcoma) cells; experiment: MTT cell growth inhibition, solid tumor cells; type: cell-based; conditions: Homo sapiens, MG-63, 72 h, MTT; for IC50: read-out: IC50; for IC90: read-out: IC90
Excerpt: as §1, §2

[5] = tested on: A549 (human lung cancer) cells; experiment: MTT cell growth inhibition, solid tumor cells; type: cell-based; conditions: Homo sapiens, A549, 72 h, MTT; for IC50: read-out: IC50; for IC90: read-out: IC90
Excerpt: as §1, §2

[6] = tested on: RKO (human colon adenocarcinoma) cells; experiment: MTT cell growth inhibition, solid tumor cells; type: cell-based; conditions: Homo sapiens, RKO, 72 h, MTT; for IC50: read-out: IC50; for IC90: read-out: IC90
Excerpt: as §1, §2

tumor = experiment: Antitumor activity compared with fangchinoline, overall statement; type: cell-based; conditions: tumor type not specified
[7] = tested on: PANC-1 (pancreatic cancer) cells; experiment: MTT cell growth inhibition, solid tumor cells; type: cell-based, human; conditions: Homo sapiens, PANC-1, 72 h, MTT; for IC50: read-out: IC50; for IC90: read-out: IC90
Excerpt: as §1, §2

[8] = tested on: PC-3 (prostate cancer) cells; experiment: MTT cell growth inhibition, solid tumor cells; type: cell-based, human; conditions: Homo sapiens, PC-3, 72 h, MTT; for IC50: read-out: IC50; for IC90: read-out: IC90
Excerpt: as §1, §2

[9] = tested on: SK-OV-3 (ovarian cancer) cells; experiment: MTT cell growth inhibition, solid tumor cells; type: cell-based, human; conditions: Homo sapiens, SK-OV-3, 72 h, MTT; for IC50: read-out: IC50; for IC90: read-out: IC90
Excerpt: as §1, §2

[10] = tested on: CNE (nasopharyngeal carcinoma) cells; experiment: MTT cell growth inhibition, solid tumor cells; type: cell-based, human; conditions: Homo sapiens, CNE, 72 h, MTT; for IC50: read-out: IC50; for IC90: read-out: IC90
Excerpt: as §1, §2

[11] = tested on: CaEs-17 (esophageal cancer) cells; experiment: MTT cell growth inhibition, solid tumor cells; type: cell-based, human; conditions: Homo sapiens, CaEs17, CaEs-17, 72 h, MTT; for IC50: read-out: IC50; for IC90: read-out: IC90
Excerpt: as §1, §2

[12] = tested on: K562/ADR (K562adr, drug-resistant chronic myeloid leukemia) cells; experiment: MTT cell growth inhibition, leukemia cells; type: cell-based; conditions: Homo sapiens, K562/ADR, 72 h, MTT; for IC50: read-out: IC50; for IC90: read-out: IC90
Excerpt: (§3) Leukemia cell lines: leukemia cell lines: K562adr (drug-resistant, chronic myeloid leukemia, CML), NB4 (acute promyelocytic leukemia, AML), Kasumi-1 (acute myeloid leukemia M2 type, AML-M2), Jurkat (acute lymphoblastic leukemia, ALL), all of which were donated by Cancer Research Institute of Zhejiang University, China; and H9 (acute lymphoblastic leukemia, ALL), which was purchased from China Center for Type Culture Collection.
(§4) Reagents: The standard sample of fangchinoline (FAN) was purchased from Ci Yuan Biotechnology Co., Ltd., Shaanxi, China; and the 7-substituted fangchinoline derivatives according to the present invention.
(§5) 6000 well-growing leukemia cells were obtained and inoculated into wells of a 96-well cell culture plate. The culture medium was a RPMI-1640 cell culture medium containing 10% fetal bovine serum. After adding the 7-substituted fangchinoline derivatives of different concentrations the next day and mixing uniformly, the plate was placed in a carbon dioxide cell incubator (5% CO2) at 37° C. and incubating for 72 hours. Then the viable cell concentration was determined by the MTT method.

[13] = tested on: NB4 (acute promyelocytic leukemia) cells; experiment: MTT cell growth inhibition, leukemia cells; type: cell-based; conditions: Homo sapiens, NB4, 72 h, MTT; for IC50: read-out: IC50; for IC90: read-out: IC90
Excerpt: as §3, §4, §5

[14] = tested on: H9 (acute lymphoblastic leukemia) cells; experiment: MTT cell growth inhibition, leukemia cells; type: cell-based, human; conditions: Homo sapiens, H9, 72 h, MTT; for IC50: read-out: IC50; for IC90: read-out: IC90
Excerpt: as §3, §4, §5

[15] = tested on: Jurkat (acute lymphoblastic leukemia) cells; experiment: MTT cell growth inhibition, leukemia cells; type: cell-based, human; conditions: Homo sapiens, Jurkat, 72 h, MTT; for IC50: read-out: IC50; for IC90: read-out: IC90
Excerpt: as §3, §4, §5

[16] = tested on: Kasumi-1 (acute myeloid leukemia M2 type) cells; experiment: MTT cell growth inhibition, leukemia cells; type: cell-based, human; conditions: Homo sapiens, Kasumi-1, 72 h, MTT; for IC50: read-out: IC50; for IC90: read-out: IC90
Excerpt: as §3, §4, §5

[17] = tested on: RPMI 8226 (multiple myeloma) cells; experiment: MTT cell growth inhibition, multiple myeloma cells; type: cell-based, human; conditions: Homo sapiens, RPMI 8226, 72 h, MTT; for IC50: read-out: IC50; for IC90: read-out: IC90
Procedure: Myeloma cell lines: RPMI8226 (multiple myeloma), purchased from Fuxiang Bio-tech Co. Ltd., Shanghai, China.
as §5, with “well-growing” for “well-growing leukemia”, “incubated” for “incubating”

IC50 [1] | IC90 [1] | IC50 [2] | IC90 [2] | IC50 [3] | IC90 [3] | IC50 [4] | IC90 [4] | IC50 [5] | IC90 [5] | IC50 [6] | IC90 [6] | IC50 [7] | IC90 [7] | IC50 [8] | IC90 [8] | IC50 [9] | IC90 [9] | IC50 [10] | Compound | antitumor activity compared with that of fangchinoline (tumor) | other results
1.56 µg/mL (≈ 2.04 µM) | 3.94 µg/mL (≈ 5.16 µM) | 3.99 µg/mL (≈ 5.23 µM) | 11.1 µg/mL (≈ 14.5 µM) | 1.79 µg/mL (≈ 2.35 µM) | 5.39 µg/mL (≈ 7.06 µM) | 3.18 µg/mL (≈ 4.17 µM) | 4.83 µg/mL (≈ 6.33 µM) | 2.41 µg/mL (≈ 3.16 µM) | 6.55 µg/mL (≈ 8.59 µM) | 1.44 µg/mL (≈ 1.89 µM) | 2.33 µg/mL (≈ 3.05 µM) | 3.16 µg/mL (≈ 4.14 µM) | 6.75 µg/mL (≈ 8.85 µM) | 3.17 µg/mL (≈ 4.16 µM) | 5.85 µg/mL (≈ 7.67 µM) | 1.92 µg/mL (≈ 2.52 µM) | 8.07 µg/mL (≈ 10.6 µM) | 3.5 µg/mL (≈ 4.59 µM) | COc1ccc2cc1Oc1ccc(cc1)C[C@H]1c3cc(c(OC)cc3CCN1C)Oc1c(OS(=O)(=O)c3ccc(C)cc3)c(OC)cc3c1[C@H](C2)N(C)CC3 [BS-FC-102] | significantly superior | IC90 [10]: 6.9 µg/mL (≈ 9.04 µM); IC50 [11]: 2.47 µg/mL (≈ 3.24 µM); IC90 [11]: 7.91 µg/mL (≈ 10.4 µM); IC50 [12]: 0.4 µg/mL (≈ 0.524 µM); IC90 [12]: 3.03 µg/mL (≈ 3.97 µM); IC50 [13]: 0.38 µg/mL (≈ 0.498 µM); IC90 [13]: 0.94 µg/mL (≈ 1.23 µM); IC50 [14]: 2.4 µg/mL (≈ 3.15 µM); IC90 [14]: 6.4 µg/mL (≈ 8.39 µM); IC50 [15]: 0.72 µg/mL (≈ 0.944 µM); IC90 [15]: 1.97 µg/mL (≈ 2.58 µM); IC50 [16]: 1.93 µg/mL (≈ 2.53 µM); IC90 [16]: 4.32 µg/mL (≈ 5.66 µM); IC50 [17]: 0.14 µg/mL (≈ 0.184 µM); IC90 [17]: 0.77 µg/mL (≈ 1.01 µM)
1.44 µg/mL (≈ 1.92 µM) | 3.9 µg/mL (≈ 5.21 µM) | 3.18 µg/mL (≈ 4.25 µM) | 10.2 µg/mL (≈ 13.6 µM) | 1.63 µg/mL (≈ 2.18 µM) | 4.5 µg/mL (≈ 6.01 µM) | 2.71 µg/mL (≈ 3.62 µM) | 3.88 µg/mL (≈ 5.18 µM) | 1.57 µg/mL (≈ 2.1 µM) | 3.94 µg/mL (≈ 5.26 µM) | 0.74 µg/mL (≈ 0.988 µM) | 1.76 µg/mL (≈ 2.35 µM) | 2.01 µg/mL (≈ 2.68 µM) | 10.8 µg/mL (≈ 14.4 µM) | 2.5 µg/mL (≈ 3.34 µM) | 5.51 µg/mL (≈ 7.36 µM) | 1.88 µg/mL (≈ 2.51 µM) | 3.79 µg/mL (≈ 5.06 µM) | 2.5 µg/mL (≈ 3.34 µM) | COc1ccc2cc1Oc1ccc(cc1)C[C@H]1c3cc(c(OC)cc3CCN1C)Oc1c(OS(=O)(=O)c3ccccc3)c(OC)cc3c1[C@H](C2)N(C)CC3 [BS-FC-104] | significantly superior | IC90 [10]: 4.9 µg/mL (≈ 6.54 µM); IC50 [11]: 2 µg/mL (≈ 2.67 µM); IC90 [11]: 7.42 µg/mL (≈ 9.91 µM); IC50 [12]: 0.42 µg/mL (≈ 0.561 µM); IC90 [12]: 2.65 µg/mL (≈ 3.54 µM); IC50 [13]: 0.28 µg/mL (≈ 0.374 µM); IC90 [13]: 0.92 µg/mL (≈ 1.23 µM); IC50 [14]: 1 µg/mL (≈ 1.34 µM); IC90 [14]: 4.99 µg/mL (≈ 6.66 µM); IC50 [15]: 0.45 µg/mL (≈ 0.601 µM); IC90 [15]: 3.03 µg/mL (≈ 4.05 µM); IC50 [16]: 0.95 µg/mL (≈ 1.27 µM); IC90 [16]: 3.68 µg/mL (≈ 4.91 µM); IC50 [17]: 0.12 µg/mL (≈ 0.16 µM); IC90 [17]: 0.5 µg/mL (≈ 0.668 µM)
